Measured values as given in US20040235857A1, “Crystalline therapeutic agent” (Pfizer Inc, priority 2003, published 2004).

What was measured:
[1] = Dynamic vapour sorption (DVS) moisture sorption; type: physicochemical; conditions: DVS isotherm, 30° C.
Method: The moisture sorption of the hydrated forms of sildenafil hemi-citrate was measured using a Surface Measurement Systems Ltd. Dynamic Vapour Sorption (DVS) Automated Water Sorption Analyser. A sample of the higher hydrate was initially equilibrated at about 45% RH and then analysed from 0 to 90% RH in relative humidity steps of 10% (exposure time of 6 hours per step). A second analysis was carried out from 35 to 65% RH in 5% RH steps to gain more detail in this humidity range (exposure time variable, weight stability of 0.0003%/minute gained for each steps). The temperature was maintained at 30° C. throughout the equilibration and analysis stages.
Sildenafil hemi-citrate is a hygroscopic material. The isotherm is represented in FIG. 5. At humidities greater than 55% RH the higher hydrate is present and from 30 to 40% RH the lower hydrate is present and at 0% RH the dehydrated form is present. Hysteresis occurs between the sorption and desorption isotherms in the 10 to 30 and 40 to 55% RH regions. This is classically seen for hydrates where kinetics associated with hydration and dehydration result in the events occurring at different humidities. There are slow kinetics associated with the rate of sorption (see FIG. 6) at 50% RH (illustrated by an equilibration time of 21 hours).

[2] = TGA of the higher hydrated form of sildenafil hemi-citrate; type: physicochemical; conditions: temperatures in excess of 150° C.; attributed to degradation of the citrate ion
Method: A TGA trace showing the relative % weight loss versus temperature for the solid form of the present invention is illustrated in FIG. 7. This trace was obtained using a Perkin-Elmer Pyris 1 TGA instrument. The sample, ideally about 5 to about 10 mg, was heated at 20° C./minute from ambient to about 300° C. with a purge gas of nitrogen.

relative humidity at which the form is present [1]: 0 % RH
second weight loss [2]: about 12%
SMILES: CCCc1nn(C)c2c(=O)[nH]c(-c3cc(S(=O)(=O)N4CCN(C)CC4)ccc3OCC)nc12.CCCc1nn(C)c2c(=O)[nH]c(-c3cc(S(=O)(=O)N4CCN(C)CC4)ccc3OCC)nc12.O=C(O)CC(O)(CC(=O)O)C(=O)O [dehydrated hydrate]
